From ChEMBL document CHEMBL5108048, “Potent GCN2 Inhibitor Capable of Reversing MDSC-Driven T Cell Suppression Demonstrates In Vivo Efficacy as a Single Agent and in Combination with Anti-Angiogenesis Therapy” (J Med Chem, 2022)
pIC50: −log10 of the molar value. Activity calls are given as the source filed them. The calls are words filed in the database; no cut-off is given here.

Experiments:
eIF-2-alpha kinase GCN2 [1] = target: T1, eIF-2-alpha kinase GCN2 (Homo sapiens, UniProt Q9P2K8); assay: Inhibition of GCN2 (unknown origin)
eIF-2-alpha kinase GCN2 [2] = target: T1, eIF-2-alpha kinase GCN2; assay: Inhibition of GCN2 in human SK-OV-3 cells assessed as reduction in phosphorylation of eIF2alpha by cellular assay; assay type: cell-based
[3] = […] in Sprague-Dawley rat […] assessed as half life at 0.5 mg/kg,iv; assay type: ADME, organism-based
[4] = AUC (0-infinity) in Sprague-Dawley rat at 2 mg/kg,po; assay type: ADME, organism-based; parameters: time infinity, dose 2 mg/kg, route po; conditions: in vivo
[5] = Oral bioavailability in Sprague-Dawley rat at 2 mg/kg; assay type: ADME, organism-based; conditions: in vivo
[6] = target: T2, Eukaryotic translation initiation factor 2-alpha kinase 1 (Homo sapiens, UniProt Q9BQI3); assay: Inhibition of HRI (unknown origin)
[7] = target: T3, Interferon-induced, double-stranded RNA-activated protein kinase (Homo sapiens, UniProt P19525); assay: Inhibition of PKR (unknown origin)
[8] = target: T4, Eukaryotic translation initiation factor 2-alpha kinase 3 (Homo sapiens, UniProt Q9NZJ5); assay: Inhibition of PERK (unknown origin)
T4 sequence (Q9NZJ5 whole entry): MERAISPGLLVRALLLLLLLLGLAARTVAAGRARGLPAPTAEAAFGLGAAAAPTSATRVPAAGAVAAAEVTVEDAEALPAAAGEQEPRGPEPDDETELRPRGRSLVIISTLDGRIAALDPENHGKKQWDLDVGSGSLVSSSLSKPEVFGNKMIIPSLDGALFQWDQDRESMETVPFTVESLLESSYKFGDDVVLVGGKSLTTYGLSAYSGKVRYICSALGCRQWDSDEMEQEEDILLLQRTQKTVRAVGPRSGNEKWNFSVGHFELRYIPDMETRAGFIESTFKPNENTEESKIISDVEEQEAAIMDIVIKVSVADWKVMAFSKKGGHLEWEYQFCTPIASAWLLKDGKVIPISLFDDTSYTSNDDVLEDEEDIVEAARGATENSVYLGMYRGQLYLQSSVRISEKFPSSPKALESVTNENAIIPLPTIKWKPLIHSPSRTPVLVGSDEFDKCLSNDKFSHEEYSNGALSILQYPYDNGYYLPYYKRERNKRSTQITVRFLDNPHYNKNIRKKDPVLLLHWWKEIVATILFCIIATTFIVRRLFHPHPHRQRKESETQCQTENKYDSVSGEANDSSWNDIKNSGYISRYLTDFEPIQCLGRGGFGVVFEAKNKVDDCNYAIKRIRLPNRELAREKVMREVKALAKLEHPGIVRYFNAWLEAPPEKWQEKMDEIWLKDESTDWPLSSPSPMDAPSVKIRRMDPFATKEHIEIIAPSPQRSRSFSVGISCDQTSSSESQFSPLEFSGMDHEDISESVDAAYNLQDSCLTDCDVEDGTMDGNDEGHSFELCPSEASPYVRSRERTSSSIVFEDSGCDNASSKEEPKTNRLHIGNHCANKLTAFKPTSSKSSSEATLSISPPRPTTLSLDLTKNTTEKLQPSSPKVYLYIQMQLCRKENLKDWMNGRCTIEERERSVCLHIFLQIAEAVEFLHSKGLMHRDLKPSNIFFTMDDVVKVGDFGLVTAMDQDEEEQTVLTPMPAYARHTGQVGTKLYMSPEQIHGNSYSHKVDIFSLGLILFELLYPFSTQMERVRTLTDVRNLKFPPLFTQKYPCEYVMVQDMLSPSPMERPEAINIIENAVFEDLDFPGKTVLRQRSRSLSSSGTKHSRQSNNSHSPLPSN

CDK6/cyclin D3 = CDK6/cyclin D3 (Homo sapiens, UniProt Q00534); assay: Inhibition of CDK6/Cyclin-D3 (unknown origin); assay type: protein-complex assay
[9] = target: T5, Cyclin-dependent kinase-like 2 (Homo sapiens, UniProt Q92772); assay: Inhibition of CDKL2 (unknown origin)
T5 sequence (Q92772 whole entry): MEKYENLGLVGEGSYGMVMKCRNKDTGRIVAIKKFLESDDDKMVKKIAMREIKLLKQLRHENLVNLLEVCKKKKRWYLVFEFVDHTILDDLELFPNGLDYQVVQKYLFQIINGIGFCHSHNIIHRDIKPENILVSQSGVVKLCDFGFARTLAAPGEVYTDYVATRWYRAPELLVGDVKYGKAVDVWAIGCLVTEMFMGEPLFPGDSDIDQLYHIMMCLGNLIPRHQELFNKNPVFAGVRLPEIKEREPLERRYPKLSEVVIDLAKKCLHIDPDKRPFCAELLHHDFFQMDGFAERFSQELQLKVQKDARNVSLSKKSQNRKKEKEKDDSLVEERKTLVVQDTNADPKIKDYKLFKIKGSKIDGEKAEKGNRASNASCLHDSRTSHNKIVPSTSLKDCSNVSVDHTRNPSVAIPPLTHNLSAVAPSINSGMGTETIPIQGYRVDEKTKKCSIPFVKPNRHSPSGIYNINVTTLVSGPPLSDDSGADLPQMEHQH

[10] = target: T6, Cyclin-dependent kinase-like 3 (Homo sapiens, UniProt Q8IVW4); assay: Inhibition of CDKL3 (unknown origin)
[11] = target: T7, Cyclin-dependent kinase-like 4 (Homo sapiens, UniProt Q5MAI5); assay: Inhibition of CDKL4 (unknown origin)
[12] = target: T8, Mitogen-activated protein kinase 10 (Homo sapiens, UniProt P53779); assay: Inhibition of JNK3 (unknown origin)
[13] = target: T9, Transcription initiation factor TFIID subunit 1-like (Homo sapiens, UniProt Q8IZX4); assay: Inhibition of TAF1L (unknown origin)
[14] = target: T2, Eukaryotic translation initiation factor 2-alpha kinase 1; assay: Inhibition of HRI (unknown origin) assessed as fold change
[15] = target: T3, Interferon-induced, double-stranded RNA-activated protein kinase; assay: Inhibition of PKR (unknown origin) assessed as fold change
[16] = target: T10, Eukaryotic translation initiation factor 2-alpha kinase 3 (Homo sapiens) (UniProt Q9NZJ5); assay: Inhibition of PERK (unknown origin) assessed as fold change
T10 sequence (whole entry): T4 sequence (Q9NZJ5 whole entry)

[17] = target: CDK6/cyclin D3 (Homo sapiens) (UniProt P30281+Q00534); assay: Inhibition of CDK6/Cyclin-D3 (unknown origin) assessed as fold change; assay type: protein-complex assay
[18] = target: T11, Cyclin-dependent kinase-like 2 (Homo sapiens) (UniProt Q92772); assay: Inhibition of CDKL2 (unknown origin) assessed as fold change
T11 sequence (whole entry): T5 sequence (Q92772 whole entry)

[19] = target: T6, Cyclin-dependent kinase-like 3; assay: Inhibition of CDKL3 (unknown origin) assessed as fold change
[20] = target: T7, Cyclin-dependent kinase-like 4; assay: Inhibition of CDKL4 (unknown origin) assessed as fold change
[21] = target: T8, Mitogen-activated protein kinase 10; assay: Inhibition of JNK3 (unknown origin) assessed as fold change
[22] = target: T9, Transcription initiation factor TFIID subunit 1-like; assay: Inhibition of TAF1L (unknown origin) assessed as fold change
eIF-2-alpha kinase GCN2 [23] = target: T1, eIF-2-alpha kinase GCN2; assay: Inhibition of GCN2 in human SK-OV-3 cells assessed as reduction in phosphorylation of eIF2alpha in presence of human serum by cellular assay; assay type: cell-based
[24] = Plasma protein binding (unknown origin) assessed as unbound fraction; assay type: ADME, cell-free
[25] = Clearance in Balb/c mouse at 0.5 mg/kg,iv; assay type: ADME, organism-based; conditions: in vivo
[26] = Volume of distribution at steady state in Balb/c mouse at 0.5 mg/kg,iv; assay type: ADME, organism-based; conditions: in vivo, read-out: Vdss
[27] = AUC (0-infinity) in Balb/c mouse at 2 mg/kg,po; assay type: ADME, organism-based; parameters: time infinity, dose 2 mg/kg, route po; conditions: in vivo
[28] = Oral bioavailability in Balb/c mouse at 2 mg/kg; assay type: ADME, organism-based; conditions: in vivo
Mus musculus [29] = assay: In vivo inhibition of GCN2 in Balb/c mouse injected with […] Renca cells assessed as reduction in tumor GCN2 expression level at 15 mg/kg,po bid after 17 days; assay type: functional; conditions: Neoplasm, 408 h, time 17 day
Spleen = assay: In vivo inhibition of GCN2 in Balb/c mouse injected with […] Renca cells assessed as reduction in spleen GCN2 expression level at 15 mg/kg,po bid after 17 days; assay type: functional; conditions: 408 h, time 17 day
Mus musculus [30] = assay: In vivo inhibition of GCN2 in Balb/c mouse injected with […] Renca cells assessed as reduction in ATF4 expression level at 15 mg/kg,po bid after 17 days by western blot analysis; assay type: functional; conditions: 408 h, time 17 day
Panc02 = assay: Antitumor activity against […] Panc02 cells xenografted in mouse assessed as decrease in MDSC- induced suppression of CD8+ T cells at 600 nM incubated for 3 days; assay type: functional, cell-based; conditions: time 3.0 day
[31] = Antitumor activity against mouse LL2 cells xenografted in mouse assessed as tumor growth inhibition at 50 mg/kg,po bid measured after 26 days; assay type: functional; conditions: Lewis lung carcinoma, 624 h, time 26 day, read-out: TGI
[32] = Half life in Balb/c mouse at 0.5 mg/kg,iv; assay type: ADME, organism-based; conditions: in vivo
[33] = Antitumor activity against mouse LL2 cells xenografted in mouse assessed as tumor growth inhibition at 50 mg/kg,po bid in presence of anti-VEGFR antibody measured after 26 days; assay type: functional; conditions: Lewis lung carcinoma, 624 h, time 26 day, read-out: TGI

T1 sequence (Q9P2K8 whole entry): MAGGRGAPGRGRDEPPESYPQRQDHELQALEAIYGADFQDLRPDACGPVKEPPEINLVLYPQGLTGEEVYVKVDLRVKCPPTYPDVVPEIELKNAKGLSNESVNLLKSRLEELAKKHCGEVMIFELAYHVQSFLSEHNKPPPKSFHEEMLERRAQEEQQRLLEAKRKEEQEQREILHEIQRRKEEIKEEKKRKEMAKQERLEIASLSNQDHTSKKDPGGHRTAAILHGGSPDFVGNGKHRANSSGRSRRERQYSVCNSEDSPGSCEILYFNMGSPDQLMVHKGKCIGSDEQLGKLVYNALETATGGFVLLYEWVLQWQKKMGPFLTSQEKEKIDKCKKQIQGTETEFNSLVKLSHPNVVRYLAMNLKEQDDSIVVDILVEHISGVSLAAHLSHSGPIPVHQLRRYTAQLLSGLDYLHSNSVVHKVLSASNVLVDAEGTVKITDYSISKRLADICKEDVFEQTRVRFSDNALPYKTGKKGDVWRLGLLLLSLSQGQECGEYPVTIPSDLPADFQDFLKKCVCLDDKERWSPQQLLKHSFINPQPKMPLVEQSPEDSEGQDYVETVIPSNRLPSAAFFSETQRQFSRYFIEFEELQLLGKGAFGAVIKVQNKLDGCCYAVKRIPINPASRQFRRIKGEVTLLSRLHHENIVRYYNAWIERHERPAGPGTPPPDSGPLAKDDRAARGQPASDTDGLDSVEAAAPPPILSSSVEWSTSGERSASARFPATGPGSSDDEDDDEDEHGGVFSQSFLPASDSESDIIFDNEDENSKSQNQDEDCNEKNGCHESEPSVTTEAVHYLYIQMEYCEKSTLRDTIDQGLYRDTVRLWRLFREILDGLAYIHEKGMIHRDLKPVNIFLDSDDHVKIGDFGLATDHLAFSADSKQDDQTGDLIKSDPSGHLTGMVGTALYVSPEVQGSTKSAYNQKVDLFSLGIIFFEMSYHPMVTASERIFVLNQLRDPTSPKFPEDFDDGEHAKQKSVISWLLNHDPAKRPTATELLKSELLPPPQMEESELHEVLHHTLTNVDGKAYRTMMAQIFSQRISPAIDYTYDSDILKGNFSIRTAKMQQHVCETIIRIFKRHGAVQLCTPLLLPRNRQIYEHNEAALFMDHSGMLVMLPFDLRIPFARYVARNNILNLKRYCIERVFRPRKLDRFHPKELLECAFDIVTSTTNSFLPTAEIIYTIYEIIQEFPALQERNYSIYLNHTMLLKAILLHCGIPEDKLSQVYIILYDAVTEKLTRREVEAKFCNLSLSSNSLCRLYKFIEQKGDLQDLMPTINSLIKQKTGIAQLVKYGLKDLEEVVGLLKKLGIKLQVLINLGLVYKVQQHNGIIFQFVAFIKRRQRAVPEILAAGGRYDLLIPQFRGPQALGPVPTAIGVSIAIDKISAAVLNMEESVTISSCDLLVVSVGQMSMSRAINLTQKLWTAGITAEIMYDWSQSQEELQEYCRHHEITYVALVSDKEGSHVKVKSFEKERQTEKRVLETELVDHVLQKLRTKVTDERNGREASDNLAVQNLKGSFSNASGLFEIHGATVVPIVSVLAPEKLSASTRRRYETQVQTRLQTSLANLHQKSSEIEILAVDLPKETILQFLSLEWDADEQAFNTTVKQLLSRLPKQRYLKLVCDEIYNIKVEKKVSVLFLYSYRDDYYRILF
T7 sequence (Q5MAI5 whole entry): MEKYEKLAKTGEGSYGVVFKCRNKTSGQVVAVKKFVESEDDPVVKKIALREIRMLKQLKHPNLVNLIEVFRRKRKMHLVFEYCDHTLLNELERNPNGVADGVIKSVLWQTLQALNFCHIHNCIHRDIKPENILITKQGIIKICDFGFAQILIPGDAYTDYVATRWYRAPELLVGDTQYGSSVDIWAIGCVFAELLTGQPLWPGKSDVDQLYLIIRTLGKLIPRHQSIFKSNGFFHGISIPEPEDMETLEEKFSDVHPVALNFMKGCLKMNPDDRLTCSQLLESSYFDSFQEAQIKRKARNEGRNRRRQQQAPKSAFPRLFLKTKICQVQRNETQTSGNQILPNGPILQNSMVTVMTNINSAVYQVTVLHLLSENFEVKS
T3 sequence (P19525 whole entry): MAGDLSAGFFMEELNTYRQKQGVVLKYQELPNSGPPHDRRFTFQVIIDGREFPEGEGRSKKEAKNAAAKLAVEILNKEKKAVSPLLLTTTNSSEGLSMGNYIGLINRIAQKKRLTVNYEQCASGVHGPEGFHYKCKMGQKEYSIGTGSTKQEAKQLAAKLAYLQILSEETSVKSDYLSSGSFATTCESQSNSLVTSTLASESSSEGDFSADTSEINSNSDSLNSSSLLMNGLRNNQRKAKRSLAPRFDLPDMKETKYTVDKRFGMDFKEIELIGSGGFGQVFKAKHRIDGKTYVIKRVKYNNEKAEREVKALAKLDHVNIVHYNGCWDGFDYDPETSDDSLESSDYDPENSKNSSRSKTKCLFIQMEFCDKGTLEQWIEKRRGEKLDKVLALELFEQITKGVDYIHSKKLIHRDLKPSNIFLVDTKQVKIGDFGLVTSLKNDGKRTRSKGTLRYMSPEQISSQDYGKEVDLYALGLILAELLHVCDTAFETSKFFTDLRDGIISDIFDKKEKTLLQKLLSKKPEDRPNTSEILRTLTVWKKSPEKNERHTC
T2 sequence (Q9BQI3 whole entry): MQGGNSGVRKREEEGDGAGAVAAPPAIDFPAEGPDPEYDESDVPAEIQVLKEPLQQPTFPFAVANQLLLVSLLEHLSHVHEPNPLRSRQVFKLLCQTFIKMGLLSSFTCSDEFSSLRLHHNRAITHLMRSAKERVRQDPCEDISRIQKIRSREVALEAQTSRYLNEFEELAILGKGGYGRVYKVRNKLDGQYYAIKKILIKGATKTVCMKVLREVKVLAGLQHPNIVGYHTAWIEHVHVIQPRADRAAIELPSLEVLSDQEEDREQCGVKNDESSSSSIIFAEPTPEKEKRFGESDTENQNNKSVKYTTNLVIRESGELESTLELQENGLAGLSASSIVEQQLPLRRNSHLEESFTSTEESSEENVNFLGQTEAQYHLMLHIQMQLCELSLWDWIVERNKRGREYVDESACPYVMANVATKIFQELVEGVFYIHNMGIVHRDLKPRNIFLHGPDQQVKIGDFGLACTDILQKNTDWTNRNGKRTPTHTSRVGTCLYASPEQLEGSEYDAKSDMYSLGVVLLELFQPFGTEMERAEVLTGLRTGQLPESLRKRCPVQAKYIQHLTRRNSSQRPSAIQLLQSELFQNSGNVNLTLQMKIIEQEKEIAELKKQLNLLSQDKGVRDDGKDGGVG
T9 sequence (Q8IZX4 whole entry): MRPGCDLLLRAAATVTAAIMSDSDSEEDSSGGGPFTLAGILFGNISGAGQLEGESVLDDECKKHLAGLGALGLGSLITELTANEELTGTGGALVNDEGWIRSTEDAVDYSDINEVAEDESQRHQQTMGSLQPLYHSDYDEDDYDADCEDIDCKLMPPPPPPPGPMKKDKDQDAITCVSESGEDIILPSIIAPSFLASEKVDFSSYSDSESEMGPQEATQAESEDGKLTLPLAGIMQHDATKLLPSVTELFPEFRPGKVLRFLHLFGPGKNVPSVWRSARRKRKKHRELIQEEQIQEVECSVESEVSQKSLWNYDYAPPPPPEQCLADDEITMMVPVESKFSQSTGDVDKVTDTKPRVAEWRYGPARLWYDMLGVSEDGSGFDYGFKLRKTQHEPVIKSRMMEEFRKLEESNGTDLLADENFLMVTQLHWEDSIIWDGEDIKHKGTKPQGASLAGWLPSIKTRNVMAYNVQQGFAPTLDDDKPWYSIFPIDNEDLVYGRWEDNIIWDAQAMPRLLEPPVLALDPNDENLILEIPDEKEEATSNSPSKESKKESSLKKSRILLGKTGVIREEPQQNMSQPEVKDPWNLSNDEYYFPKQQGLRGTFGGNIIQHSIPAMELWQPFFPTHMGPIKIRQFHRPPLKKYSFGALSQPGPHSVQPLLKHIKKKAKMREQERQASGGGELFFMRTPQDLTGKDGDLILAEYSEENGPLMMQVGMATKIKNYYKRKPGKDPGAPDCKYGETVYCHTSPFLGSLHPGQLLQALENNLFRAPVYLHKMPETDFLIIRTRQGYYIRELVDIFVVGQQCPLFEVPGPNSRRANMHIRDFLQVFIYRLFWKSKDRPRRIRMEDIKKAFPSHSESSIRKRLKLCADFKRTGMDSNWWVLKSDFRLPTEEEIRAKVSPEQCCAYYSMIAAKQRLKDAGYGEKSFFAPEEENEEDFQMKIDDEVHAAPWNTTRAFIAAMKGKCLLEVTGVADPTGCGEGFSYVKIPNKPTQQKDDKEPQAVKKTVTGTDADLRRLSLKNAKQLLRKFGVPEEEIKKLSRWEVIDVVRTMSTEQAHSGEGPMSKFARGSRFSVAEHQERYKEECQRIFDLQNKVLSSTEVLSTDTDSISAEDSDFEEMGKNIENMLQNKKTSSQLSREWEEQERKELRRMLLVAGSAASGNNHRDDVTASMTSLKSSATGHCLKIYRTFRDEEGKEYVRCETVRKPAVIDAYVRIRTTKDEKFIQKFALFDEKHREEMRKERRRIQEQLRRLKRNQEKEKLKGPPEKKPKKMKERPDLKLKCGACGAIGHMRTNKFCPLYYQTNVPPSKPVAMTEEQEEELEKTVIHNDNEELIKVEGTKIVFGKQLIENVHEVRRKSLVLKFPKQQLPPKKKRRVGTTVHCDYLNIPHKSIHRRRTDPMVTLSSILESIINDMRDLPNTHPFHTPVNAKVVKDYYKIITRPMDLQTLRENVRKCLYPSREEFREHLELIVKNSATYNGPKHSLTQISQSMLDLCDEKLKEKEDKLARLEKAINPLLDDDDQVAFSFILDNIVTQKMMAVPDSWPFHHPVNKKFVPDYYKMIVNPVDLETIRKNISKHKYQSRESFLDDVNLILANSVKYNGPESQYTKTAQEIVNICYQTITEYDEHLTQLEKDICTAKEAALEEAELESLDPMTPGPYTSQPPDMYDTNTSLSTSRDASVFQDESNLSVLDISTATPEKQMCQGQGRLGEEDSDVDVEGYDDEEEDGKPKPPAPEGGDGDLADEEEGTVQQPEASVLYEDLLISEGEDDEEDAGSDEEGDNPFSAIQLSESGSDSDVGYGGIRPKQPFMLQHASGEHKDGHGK

pIC50 (eIF-2-alpha kinase GCN2 [1]): 8.30
pIC50 (eIF-2-alpha kinase GCN2 [2]): 7.80
half-life [3]: 0.867 h
AUC(0-inf) [4]: 4600 ng·h/mL
bioavailability [5]: 80%
pIC50 [6]: < 6.00
pIC50 [7]: < 4.30
pIC50 [8]: < 4.30
pIC50 (CDK6/cyclin D3): 6.72
pIC50 [9]: 6.78
pIC50 [10]: 6.84
pIC50 [11]: 6.93
pIC50 [12]: 7.00
pIC50 [13]: 6.91
fold change (FC) [14]: > 200
fold change (FC) [15]: > 10000
fold change (FC) [16]: > 10000
fold change (FC) [17]: 38
fold change (FC) [18]: 33
fold change (FC) [19]: 28
fold change (FC) [20]: 23
fold change (FC) [21]: 20
fold change (FC) [22]: 25
pIC50 (eIF-2-alpha kinase GCN2 [23]): 5.88
Fu [24]: 1%
clearance [25]: 10 mL/min/kg
Vd [26]: 0.8 L/kg
AUC(0-inf) [27]: 1680 ng·h/mL
bioavailability [28]: 50%
half-life [32]: 1.2 h
Compound: CNC(=O)[C@]1(C)CC[C@@H](Nc2ncc3c(Br)nn(-c4ccc(-c5nnc(C)s5)cc4)c3n2)C1
inhibition in vivo at 15 mg/kg (Mus musculus [29]): 84%
inhibition in vivo at 15 mg/kg (Spleen): 80%
inhibition in vivo at 15 mg/kg (Mus musculus [30]): 65%
Activity (Panc02): Active
inhibition in vivo at 50 mg/kg [31]: 56%
inhibition in vivo at 50 mg/kg [33]: 79%
